Reference: US8637321B2, “Lipidomics approaches for central nervous system disorders” (priority 2005, dated 2014)

Tests used:
[1] = system: fatty acid elongation and desaturation (delta 5 desaturase, delta 6 desaturase, elongase); test: pathway analysis: lipid synthesis enzyme activities estimated from fatty acid ratios; type: in vivo, human
Procedure: Estimates of lipid synthesis enzyme activities were calculated using the precursor to product ratios for each enzyme. The following ratios were used: 18:3n6/18:2n6 for delta 6 desaturase; 20:3n6/18:3n6 for delta 6 elongase; 20:4n6/20:3n6 for delta 5 desaturase; 22:4n6/20:4n6 for elongase; 24:4n6/22:4n6 for elongase; 24:5n6/24:4n6 for delta 6 desaturase. The absolute numbers for each fatty acid metabolite were used for calculating metabolite changes.
To characterize fatty acid elongation and desaturation processes that might be modified in schizophrenia, various ratios of products to substrates in different fatty acid pathways were determined and are summarized in Table VIII.

[2] = cited from earlier work
[3] = system: patients with schizophrenia; test: plasma lipid profiling pre- and post-treatment with antipsychotics; type: in vivo, human; for CE18:3n3 I/D: key: I: increase; D: decrease; for DG18:3n6 I/D: key: I: increase; D: decrease; for FA.SFA I/D: key: I: increase; D: decrease; for FA16:0 I/D: key: I: increase; D: decrease; for FA18:0 I/D: key: I: increase; D: decrease; for FA20:4n6 I/D: key: I: increase; D: decrease; for FA20:5n3 I/D: key: I: increase; D: decrease; for FA24:0 I/D: key: I: increase; D: decrease; for LY.n9 I/D: key: I: increase; D: decrease; for LY18:0 I/D: key: I: increase; D: decrease; for LY18:1n9 I/D: key: I: increase; D: decrease; for LY18:3n6 I/D: key: I: increase; D: decrease; for LY20:1n9 I/D: key: I: increase; D: decrease; for LY20:2n6 I/D: key: I: increase; D: decrease; for LY20:3n9 I/D: key: I: increase; D: decrease; for LY20:4n3 I/D: key: I: increase; D: decrease; for LYLC I/D: key: I: increase; D: decrease; for PC.n9 I/D: key: I: increase; D: decrease; for PC14:0 I/D: key: I: increase; D: decrease; for PC16:1n7 I/D: key: I: increase; D: decrease; for PC18:0 I/D: key: I: increase; D: decrease; for PC18:1n9 I/D: key: I: increase; D: decrease; for PC18:3n3 I/D: key: I: increase; D: decrease; for PC18:3n6 I/D: key: I: increase; D: decrease; for PC20:2n6 I/D: key: I: increase; D: decrease; for PC20:3n9 I/D: key: I: increase; D: decrease; for PC20:4n3 I/D: key: I: increase; D: decrease; for PC20:5n3 I/D: key: I: increase; D: decrease; for PCLC I/D: key: I: increase; D: decrease; for PE.n9 I/D: key: I: increase; D: decrease; for PE18:1n9 I/D: key: I: increase; D: decrease; for PELC I/D: key: I: increase; D: decrease; for TG14:0 I/D: key: I: increase; D: decrease; for TG14:1n5 I/D: key: I: increase; D: decrease; for TG18:0 I/D: key: I: increase; D: decrease; for TG18:3n6 I/D: key: I: increase; D: decrease; for TG20:0 I/D: key: I: increase; D: decrease; for TG20:3n6 I/D: key: I: increase; D: decrease; for TG20:4n3 I/D: key: I: increase; D: decrease; for TG20:5n3 I/D: key: I: increase; D: decrease
Source text: (§1) Fifty male and female patients were recruited in two studies for metabolic profiling (Table VI and Table VII for demographics). Subjects ranged in age from 18 to 60 years and met the following inclusion criteria: a) DSM-IV criteria for schizophrenia, schizophreniform disorder, or schizoaffective disorder; b) newly hospitalized for a psychotic exacerbation in the setting of no antipsychotic treatment for at least 3 weeks prior to admission; and c) provided signed informed consent. Patients with psychoses due to psychoactive substance abuse or an underlying medical condition were excluded. Patients who were receiving treatment for diabetes mellitus or hyperlipidemia were also excluded.
The choice and dose of antipsychotic medication was based on the doctor's judgment. […] The treatment duration was 2-3 weeks. […] The mean duration of therapy was about 2 weeks for all 3 drugs in Study II. The drug groups were otherwise generally similar in severity of disease and physical characteristics (Table VI and Table VII). The 2-3 week duration permits the study of acute early effects.
All blood samples were drawn from subjects in the early morning after overnight fasting. Blood was drawn into vacutainer tubes containing sodium heparin, immediately placed on ice, and within 10 minutes, the blood was centrifuged and the plasma was transferred into polypropylene tubes and stored in a −30° C. freezer. All baseline samples were drawn prior to starting antipsychotic treatment in the study. If a patient had received a dose of an antipsychotic during the referral process (e.g., because of agitation when initially seen in a local emergency department), drawing of baseline plasma samples was delayed for 2-3 days. Follow-up samples were drawn after patients had received an average of 2-3 weeks of acute antipsychotic treatment.
A comprehensive assessment of plasma lipid profiles was performed (Lipomics Technologies, West Sacramento, Calif.) according to established methods (Watkins, et al. (2002) J. Lipid Res. 43(11):1809-17). Quantitative measurements of fatty acids in various lipid classes were determined as nmol fatty acid/gram of plasma. Lipid classes included cholesterol esters (CE), free cholesterol (FC), triacylglycerols (TG), diacylglycerols (DG), free fatty acids (FA), lysophosphatidylcholine (LY), phosphatidylcholine (PC), and phosphatidylethanolamine (PE). Lipid metabolites are identified by the lipid class and the fatty acid moiety. In the context of this invention, fatty acids are identified first by the number of carbons in the molecule (e.g., 20), the number of double bonds in the molecule (e.g., 4), and lastly the position of the double bonds (e.g., n6). To illustrate, PC20:4n6 denotes a phosphatidylcholine molecule containing a 20 carbon fatty acid with 4 double bonds at the n6 position.
Significant differences between pre- and post-drug treatment were assessed by paired t-tests. Evaluation of response to drug was assessed by two-way ANOVA. All statistics were done using R with the following functions: t.test, anova, prcomp, and g/m (Team RDC (2005) R: A language and environment for statistical computing. R Foundation for Statistical Computing). Before beginning statistical analyses, change detection was used to determine if observed signals were greater than that which could be expected by chance (noise). The chance distribution of p-values was determined by permuting the outcome groupings (Golub, et al. (1999) Science 286(5439):531-7). Briefly, P values for the appropriate comparison were calculated for each metabolite using a Student's t-test. The metabolites were ranked by p value from smallest to largest. The log of the rank versus the log of the p value for each comparison of interest was plotted and is represented by a colored line. The distribution of p values expected by chance at each rank is indicated by the shaded area. […]

[4] = system: patients with schizophrenia; test: Clinical Global Impressions (CGI) Scale psychopathology assessment; type: in vivo, human; conditions: means and standard error; for CGI Affective, Post / CGI Negative, Post / CGI Positive, Post: CGI Scale 1 to 7, higher scores greater severity; for CGI Change, Post: overall global change rating at follow-up (1-2 responders, 3-6 non-responders)
Source text: as §1
The choice and dose of antipsychotic medication was based on the doctor's judgment. […] The treatment duration was 2-3 weeks. […] The 2-3 week duration permits the study of acute early effects.
Psychopathology was assessed on the Clinical Global Impressions (CGI) Scale at baseline and at the time of follow-up blood draws. Scores for the CGI Scale can range from 1 to 7, with higher scores indicating greater severity of illness (Guy (1975) ECDEU Assessment Manual for Psychopharmacology: Publication ADM 76-338. Washington, D.C.: US Department of Health, Education, and Welfare). An overall global change rating was also made at the time of the follow-up blood draw.

[5] = Study I, plasma, post-treatment vs pre-treatment
[6] = Study II, plasma, post-treatment vs pre-treatment
[7] = plasma, mole percentage data, post treatment compared with pretreatment
[8] = plasma, total lipid class data (nmol/g sample), post treatment compared with pretreatment
[9] = Study I, after 2-3 weeks treatment
[10] = Study II, about 2 weeks treatment

Cc1nc2n(c(=O)c1CCN1CCC(c3noc4cc(F)ccc34)CC1)CCCC2 [Risperidone, risperidone]
apparent delta 5 desaturase activity ([1]; estimated from 20:4n6/20:3n6 in phosphatidylcholine, FIGS. 5A and 5B): decreased | alterations of fatty acid ratios in patients with schizophrenia ([1]; following treatment): essentially reversed toward normal ranges | effect on serum lipids ([2]; in vivo): discrepant data | weight gain, mean increases during the first year of therapy ([2]; prospective data): 4.4-5.1 lbs | concentration of arachidonic acid, AA (20:4n6) ([3]; Study I, plasma lipid classes, post-treatment vs pre-treatment): not significantly altered | CE concentration [3, 5]: trend toward an increase | DG concentration [3, 5]: trend toward an increase | FA (free fatty acid) class concentration [3, 5]: decrease | LY class concentration [3, 5]: increase | PC class concentration [3, 5]: increased | PE class concentration [3, 5]: increased | TG concentration [3, 5]: trend toward an increase | concentration of linoleic acid (18:2n6) and its immediate metabolic products 18:3n6 and 20:3n6 [3, 5]: increased | concentration of saturated fatty acids in PE, PC and LY [3, 5]: increased | concentration of total n6 and n3 fatty acids in PE, PC and LY [3, 5]: increased | n7 and n9 free fatty acids [3, 5]: decreases | DG concentration [3, 6]: significantly increased | PC18:3n6 concentration [3, 6]: increased | PC20:2n6 concentration [3, 6]: increased | PC20:3n6 concentration [3, 6]: increased | PC concentration [3, 6]: increased | PE concentration [3, 6]: increased | TG concentration [3, 6]: significantly increased | concentration of PC20:4n6 (arachidonic acid) [3, 6]: did not change | reduction in 18:0 in patients with schizophrenia ([3]; after treatment, FIG. 1): essentially reversed | triacylglycerol and phospholipid content of the plasma ([3]; following treatment): increased | fatty acid synthesis ([3]; inferred from 16:1n7, 18:1n7 and 18:1n9 concentrations): less evident | CE18:3n3 I/D [3, 7]: I | DG18:3n6 I/D [3, 7]: I | FA16:0 I/D [3, 7]: I | FA18:0 I/D [3, 7]: I | FA20:4n6 I/D [3, 7]: I | FA20:5n3 I/D [3, 7]: I | FA24:0 I/D [3, 7]: I | FA.SFA I/D [3, 7]: I | LY18:0 I/D [3, 7]: I | LY18:1n9 I/D [3, 7]: I | LY18:3n6 I/D [3, 7]: I | LY20:1n9 I/D [3, 7]: I | LY20:2n6 I/D [3, 7]: I | LY20:3n9 I/D [3, 7]: I | LY20:4n3 I/D [3, 7]: I | LY.n9 I/D [3, 7]: I | PC14:0 I/D [3, 7]: I | PC16:1n7 I/D [3, 7]: I | PC18:0 I/D [3, 7]: I | PC18:1n9 I/D [3, 7]: I | PC18:3n3 I/D [3, 7]: I | PC18:3n6 I/D [3, 7]: I | PC20:2n6 I/D [3, 7]: I | PC20:3n9 I/D [3, 7]: I | PC20:4n3 I/D [3, 7]: I | PC20:5n3 I/D [3, 7]: I | PC.n9 I/D [3, 7]: I | PE18:1n9 I/D [3, 7]: I | PE.n9 I/D [3, 7]: I | TG14:0 I/D [3, 7]: I | TG14:1n5 I/D [3, 7]: I | TG18:0 I/D [3, 7]: I | TG18:3n6 I/D [3, 7]: I | TG20:0 I/D [3, 7]: I | TG20:3n6 I/D [3, 7]: I | TG20:4n3 I/D [3, 7]: I | TG20:5n3 I/D [3, 7]: I | LYLC I/D [3, 8]: I | PCLC I/D [3, 8]: I | PELC I/D [3, 8]: I | levels of arachidonic and docosahexaenoic acids (20:4n6 and 22:6n3) ([3]; present studies, after treatment): remained essentially the same | CGI Affective, Post [4, 9]: 1.7 ± 0.3 | CGI Negative, Post [4, 9]: 2 ± 0.4 | CGI Positive, Post [4, 9]: 2.6 ± 0.2 | CGI Change, Post ([4]; Study I): 2.9 ± 0.3 | CGI Affective, Post [4, 10]: 1.2 ± 0.2 | CGI Negative, Post [4, 10]: 1.4 ± 0.2 | CGI Positive, Post [4, 10]: 3 ± 0.3 | CGI Change, Post ([4]; Study II): 3 ± 0.3
